The source of these data is patent publication US11739070B2, “C5A receptor modulators” (IDORSIA PHARMACEUTICALS LTD, priority 2018, dated 2023).

As usually defined, the IC50 is the point on the concentration scale where inhibition reaches its midpoint.

For the experiment, the target named is T1, C5AR1 (Homo sapiens, UniProt P21730).
T1 construct: host or cells: CHO-K1
T1 sequence (P21730 1-350): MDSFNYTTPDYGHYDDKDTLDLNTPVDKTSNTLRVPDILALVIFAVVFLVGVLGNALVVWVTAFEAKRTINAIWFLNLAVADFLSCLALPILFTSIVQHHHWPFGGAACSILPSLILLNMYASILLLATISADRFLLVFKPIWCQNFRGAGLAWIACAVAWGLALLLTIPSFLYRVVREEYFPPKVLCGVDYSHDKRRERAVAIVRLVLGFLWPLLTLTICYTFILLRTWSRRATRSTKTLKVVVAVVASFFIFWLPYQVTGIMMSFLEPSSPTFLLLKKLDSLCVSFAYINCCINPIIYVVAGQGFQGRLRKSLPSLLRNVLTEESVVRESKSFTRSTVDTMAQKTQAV
Put plainly: hC5a DISCO IC50 assay (PathHunter beta-arrestin, antagonist mode). Type of experiment: cell-based. The conditions noted are these: CHO-K1 C5AR1 beta-arrestin cell line; antagonist vs 1-10 nM C5a agonist; geometric mean values; read-out: C5aR IC50. Summed up:
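Antagonist added first, then 1-10 nM C5a agonist; cells incubated 1.5 h at 37 °C. Beta-arrestin signal developed with PathHunter detection reagent, 45 min at RT. IC50 in nmol/l from serial antagonist dilutions, reported as geometric mean of several measurements.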

`Cc1cccc(F)c1N1CC[C@@H](n2c(=O)n(Cc3ccccc3C(F)(F)F)c3c(OC4CCNCC4)nccc32)C1` [Example 124, 1-[(R)-1-(2-Fluoro-6-methyl-phenyl)-pyrrolidin-3-yl]-4-(piperidin-4-yloxy)-3-(2-trifluoromethyl-benzyl)-1,3-dihydro-imidazo[4,5-c]pyridin-2-one]: the IC50 turned out to be 5220 nM.

`Cc1cccc(F)c1N1CC[C@@H](n2c(=O)n(Cc3ccccc3C(F)(F)F)c3c(=O)[nH]ccc32)C1` [Example 57, 1-[(R)-1-(2-Fluoro-6-methyl-phenyl)-pyrrolidin-3-yl]-3-(2-trifluoromethyl-benzyl)-3,5-dihydro-1H-imidazo[4,5-c]pyridine-2,4-dione]: the IC50 stood at 89 nM.

As to `COc1cccc2c1n(Cc1ccccc1C(F)(F)F)c(=O)n2[C@@H]1CCN(c2c(F)cccc2[N+](=O)[O-])C1` [Example 154, 1-[(R)-1-(2-Fluoro-6-nitro-phenyl)-pyrrolidin-3-yl]-4-methoxy-3-(2-trifluoromethyl-benzyl)-1,3-dihydro-benzoimidazol-2-one], the IC50 amounted to 23 nM.

Turning to `COc1cccc2c1n(Cc1ccccc1C(F)(F)F)c(=O)n2[C@@H]1CCN(c2c(F)cccc2C(C)(C)O)C1` [Example 91, 1-{(R)-1-[2-Fluoro-6-(1-hydroxy-1-methyl-ethyl)-phenyl]-pyrrolidin-3-yl}-4-methoxy-3-(2-trifluoromethyl-benzyl)-1,3-dihydro-benzoimidazol-2-one], the IC50 is 70 nM.

As to `CCCCOC(=O)N1CC[C@@H](n2c(=O)n(Cc3ccccc3C(F)(F)F)c3c(OC)cccc32)C1` [Example 62, (R)-3-[4-Methoxy-2-oxo-3-(2-trifluoromethyl-benzyl)-2,3-dihydro-benzoimidazol-1-yl]-pyrrolidine-1-carboxylic acid butyl ester], the IC50 was found to be 99 nM.

Turning to `COc1cccc2c1n(Cc1ccccc1C(F)(F)F)c(=O)n2[C@@H]1CCN(c2c(F)cccc2CN2CCC2)C1` [Example 108, 1-[(R)-1-(2-Azetidin-1-ylmethyl-6-fluoro-phenyl)-pyrrolidin-3-yl]-4-methoxy-3-(2-trifluoromethyl-benzyl)-1,3-dihydro-benzoimidazol-2-one], the IC50 was 360 nM.

With `COc1cccc2c1n(Cc1ccccc1C(F)(F)F)c(=O)n2[C@@H]1CCN(c2c(F)cccc2CN2CCC(OC)CC2)C1` [Example 137, 1-{(R)-1-[2-Fluoro-6-(4-methoxy-piperidin-1-ylmethyl)-phenyl]-pyrrolidin-3-yl}-4-methoxy-3-(2-trifluoromethyl-benzyl)-1,3-dihydro-benzoimidazol-2-one], the IC50 is 133 nM.

On to `Cc1cccc(C)c1N1CC[C@@H](n2c(=O)n(Cc3ccccc3C(F)(F)F)c3c(OCCO)cccc32)C1` [Example 52, 1-[(R)-1-(2,6-Dimethyl-phenyl)-pyrrolidin-3-yl]-4-(2-hydroxy-ethoxy)-3-(2-trifluoromethyl-benzyl)-1,3-dihydro-benzoimidazol-2-one], for which the IC50 was determined as 30 nM.

As for `COc1cccc2c1n(Cc1cnccc1C(C)C)c(=O)n2[C@@H]1CCN(c2c(C)cccc2F)C1` [Example 180, 1-[(R)-1-(2-Fluoro-6-methyl-phenyl)-pyrrolidin-3-yl]-3-(4-isopropyl-pyridin-3-ylmethyl)-4-methoxy-1,3-dihydro-benzoimidazol-2-one], the IC50 is 9 nM.

Take `COc1cccc2c1n(Cc1ccccc1C(F)(F)F)c(=O)n2C1CCN(c2ccccc2OCCO)CC1` [Example 238, 1-{1-[2-(2-Hydroxy-ethoxy)-phenyl]-piperidin-4-yl}-4-methoxy-3-(2-trifluoromethyl-benzyl)-1,3-dihydro-benzoimidazol-2-one]: the 50% inhibitory concentration (IC50) was 133 nM.

As for `COc1cccc2c1n(Cc1ccccc1C(F)(F)F)c(=O)n2[C@@H]1CCN(C(C)C)C1` [Example 32, 1-((R)-1-Isopropyl-pyrrolidin-3-yl)-4-methoxy-3-(2-trifluoromethyl-benzyl)-1,3-dihydro-benzoimidazol-2-one], the IC50 was 642 nM.

In the case of `COc1cccc2c1n(Cc1nccnc1OC(C)C)c(=O)n2C1CCN(c2c(C)cccc2F)CC1` [Example 178, 1-[1-(2-Fluoro-6-methyl-phenyl)-piperidin-4-yl]-3-(3-isopropoxy-pyrazin-2-ylmethyl)-4-methoxy-1,3-dihydro-benzoimidazol-2-one], the IC50 amounted to 49 nM.

As for `COc1cccc2c1n(Cc1ccccc1C(F)(F)F)c(=O)n2[C@@H]1CCN(C(=O)Oc2ccccc2)C1` [Example 63, (R)-3-[4-Methoxy-2-oxo-3-(2-trifluoromethyl-benzyl)-2,3-dihydro-benzoimidazol-1-yl]-pyrrolidine-1-carboxylic acid phenyl ester], the IC50 was found to be 729 nM.

Turning to `COc1cccc2c1n(Cc1cncnc1C(C)C)c(=O)n2C1CCN(c2c(C)cccc2F)CC1` [Example 192, 1-[1-(2-Fluoro-6-methyl-phenyl)-piperidin-4-yl]-3-(4-isopropyl-pyrimidin-5-ylmethyl)-4-methoxy-1,3-dihydro-benzoimidazol-2-one], the IC50 amounted to 42 nM.

With `COC(=O)N1CC[C@@H](n2c(=O)n(Cc3ccccc3C(F)(F)F)c3c(OC)cccc32)C1` [Example 26, (R)-3-[4-Methoxy-2-oxo-3-(2-trifluoromethyl-benzyl)-2,3-dihydro-benzoimidazol-1-yl]-pyrrolidine-1-carboxylicacid methyl ester], the IC50 worked out at 459 nM.

With `COc1cccc2c1n(Cc1ccccc1C(F)(F)F)c(=O)n2[C@@H]1CCN(c2c(F)cccc2CCCN2CCOCC2)C1` [Example 162, 1-{(R)-1-[2-Fluoro-6-(3-morpholin-4-yl-propyl)-phenyl]-pyrrolidin-3-yl}-4-methoxy-3-(2-trifluoromethyl-benzyl)-1,3-dihydro-benzoimidazol-2-one], the IC50 came out at 135 nM.

For `COc1cccc2c1n(Cc1ccccc1C(F)(F)F)c(=O)n2[C@@H]1CCN(c2ccccc2F)C1` [Example 160, 1-[(R)-1-(2-Fluoro-phenyl)-pyrrolidin-3-yl]-4-methoxy-3-(2-trifluoromethyl-benzyl)-1,3-dihydro-benzoimidazol-2-one], the half-inhibitory concentration (IC50) worked out at 35 nM.

Regarding `COc1cccc(C)c1N1CC[C@@H](n2c(=O)n(Cc3ccccc3C(F)(F)F)c3c(=O)[nH]ccc32)C1` [Example 94, 1-[(R)-1-(2-Methoxy-6-methyl-phenyl)-pyrrolidin-3-yl]-3-(2-trifluoromethyl-benzyl)-3,5-dihydro-1H-imidazo[4,5-c]pyridine-2,4-dione], the IC50 was found to be 313 nM.
